Assays:
[1] = 308.15 K; 101.33 kPa; Liquid; Vibrating tube method
[2] = refractive index (Na D-line) (dimensionless); settings: 308.15 K; 101.33 kPa; Liquid; Standard Abbe refractometry
[3] = excess molar enthalpy (molar enthalpy of mixing); xn = mol fraction of the nth substance listed; settings: 308.15 K, 101.3 kPa, Liquid
[4] = xn = mol fraction of the nth substance listed; settings: 308.15 K, 101.3 kPa, Liquid

C1CCCCC1 [cyclohexane]
Settings	mass density [kg/m3]	refractive index
[1]	764.43	–
[2]	–	1.4205

Cc1cccc(C)c1 [1,3-dimethylbenzene] + CCCCOC(C)=O
Settings	excess molar enthalpy [kcal/mol]	excess molar volume [m3/mol]
[3], x2 = 0.1568	0.00237	–
[3], x2 = 0.1886	0.00332	–
[3], x2 = 0.2879	0.00409	–
[3], x2 = 0.4265	0.00523	–
[3], x2 = 0.4818	0.00528	–
[3], x2 = 0.5375	0.00554	–
[3], x2 = 0.6365	0.00559	–
[3], x2 = 0.7881	0.00457	–
[3], x2 = 0.8286	0.0043	–
[3], x2 = 0.9169	0.00284	–
[4], x2 = 0.1509	–	-7.7e-08
[4], x2 = 0.1651	–	-8.3e-08
[4], x2 = 0.2243	–	-9.4e-08
[4], x2 = 0.314	–	-1.27e-07
[4], x2 = 0.3921	–	-1.42e-07
[4], x2 = 0.5651	–	-1.44e-07
[4], x2 = 0.669	–	-1.31e-07
[4], x2 = 0.8091	–	-9.7e-08
[4], x2 = 0.8816	–	-5.2e-08
[4], x2 = 0.9052	–	-4.3e-08

CCCCOC(C)=O [butyl ethanoate] + C1CCCCC1
Settings	excess molar enthalpy [kcal/mol]	excess molar volume [m3/mol]
[3], x1 = 0.1409	0.195	–
[3], x1 = 0.1975	0.256	–
[3], x1 = 0.2672	0.307	–
[3], x1 = 0.3389	0.333	–
[3], x1 = 0.4035	0.331	–
[3], x1 = 0.4961	0.3	–
[3], x1 = 0.5517	0.268	–
[3], x1 = 0.6466	0.205	–
[3], x1 = 0.7965	0.112	–
[3], x1 = 0.8311	0.0947	–
[3], x1 = 0.9061	0.0565	–
[4], x1 = 0.1062	–	3.47e-07
[4], x1 = 0.1575	–	4.35e-07
[4], x1 = 0.223	–	5.21e-07
[4], x1 = 0.3004	–	6.04e-07
[4], x1 = 0.4851	–	6.74e-07
[4], x1 = 0.4863	–	6.85e-07
[4], x1 = 0.5412	–	6.54e-07
[4], x1 = 0.6489	–	6.07e-07
[4], x1 = 0.735	–	4.98e-07
[4], x1 = 0.7661	–	4.06e-07
[4], x1 = 0.8854	–	1.95e-07

CCCCOC(C)=O [butyl ethanoate] + Cc1ccc(C)cc1
Settings	excess molar enthalpy [kcal/mol]	excess molar volume [m3/mol]
[3], x1 = 0.0722	-0.00356	–
[3], x1 = 0.1892	-0.00856	–
[3], x1 = 0.3182	-0.0114	–
[3], x1 = 0.359	-0.0122	–
[3], x1 = 0.4828	-0.0138	–
[3], x1 = 0.6364	-0.0136	–
[3], x1 = 0.6512	-0.0136	–
[3], x1 = 0.7888	-0.0107	–
[3], x1 = 0.8394	-0.00882	–
[3], x1 = 0.9169	-0.00545	–
[4], x1 = 0.0881	–	-8e-08
[4], x1 = 0.163	–	-1.59e-07
[4], x1 = 0.314	–	-2.47e-07
[4], x1 = 0.3481	–	-2.81e-07
[4], x1 = 0.5001	–	-3.16e-07
[4], x1 = 0.6164	–	-3.18e-07
[4], x1 = 0.738	–	-2.82e-07
[4], x1 = 0.7871	–	-2.64e-07
[4], x1 = 0.8758	–	-2.21e-07
[4], x1 = 0.9179	–	-1.71e-07

CCCCOC(C)=O [butyl ethanoate] + c1ccccc1
Settings	excess molar enthalpy [kcal/mol]	excess molar volume [m3/mol]
[3], x1 = 0.1269	-0.00179	–
[3], x1 = 0.2523	-0.00335	–
[3], x1 = 0.4029	-0.005	–
[3], x1 = 0.4575	-0.00543	–
[3], x1 = 0.4958	-0.00586	–
[3], x1 = 0.5619	-0.00631	–
[3], x1 = 0.6599	-0.00655	–
[3], x1 = 0.7279	-0.00621	–
[3], x1 = 0.7714	-0.00586	–
[3], x1 = 0.8714	-0.00488	–
[4], x1 = 0.0901	–	4.2e-08
[4], x1 = 0.2214	–	7e-08
[4], x1 = 0.3662	–	7.6e-08
[4], x1 = 0.4623	–	6.9e-08
[4], x1 = 0.543	–	6e-08
[4], x1 = 0.6504	–	4.4e-08
[4], x1 = 0.7052	–	3.6e-08
[4], x1 = 0.7601	–	2.8e-08
[4], x1 = 0.8505	–	1.7e-08
[4], x1 = 0.937	–	6e-09

Cc1ccccc1 [toluene]
Settings	mass density [kg/m3]	refractive index
[1]	852.8	–
[2]	–	1.4885

CCCCOC(C)=O [butyl ethanoate]
Settings	mass density [kg/m3]	refractive index
[1]	865.45	–
[2]	–	1.3908

Cc1ccccc1C [1,2-dimethylbenzene]
Settings	mass density [kg/m3]	refractive index
[1]	867.41	–
[2]	–	1.5031

Cc1ccccc1C [1,2-dimethylbenzene] + CCCCOC(C)=O
Settings	excess molar enthalpy [kcal/mol]	excess molar volume [m3/mol]
[3], x2 = 0.0707	-0.00215	–
[3], x2 = 0.1859	-0.00296	–
[3], x2 = 0.2214	-0.00478	–
[3], x2 = 0.3134	-0.00621	–
[3], x2 = 0.3539	-0.00652	–
[3], x2 = 0.4773	-0.00693	–
[3], x2 = 0.5868	-0.00717	–
[3], x2 = 0.6462	-0.00696	–
[3], x2 = 0.8002	-0.00526	–
[3], x2 = 0.8364	-0.00454	–
[4], x2 = 0.1121	–	-2.8e-08
[4], x2 = 0.1983	–	-6.3e-08
[4], x2 = 0.2744	–	-8.2e-08
[4], x2 = 0.3652	–	-9.7e-08
[4], x2 = 0.4665	–	-1.09e-07
[4], x2 = 0.5691	–	-1.08e-07
[4], x2 = 0.606	–	-1.06e-07
[4], x2 = 0.7502	–	-9e-08
[4], x2 = 0.8041	–	-8.3e-08
[4], x2 = 0.9032	–	-5.6e-08

CCCCOC(C)=O [butyl ethanoate] + Cc1ccccc1
Settings	excess molar enthalpy [kcal/mol]	excess molar volume [m3/mol]
[3], x1 = 0.152	-0.00698	–
[3], x1 = 0.1873	-0.0086	–
[3], x1 = 0.2873	-0.012	–
[3], x1 = 0.3922	-0.0136	–
[3], x1 = 0.4465	-0.0143	–
[3], x1 = 0.502	-0.0148	–
[3], x1 = 0.543	-0.0151	–
[3], x1 = 0.6	-0.0148	–
[3], x1 = 0.7435	-0.0124	–
[3], x1 = 0.8705	-0.0086	–
[3], x1 = 0.8898	-0.00765	–
[4], x1 = 0.055	–	-1.9e-08
[4], x1 = 0.1581	–	-6e-08
[4], x1 = 0.2744	–	-8.2e-08
[4], x1 = 0.442	–	-1e-07
[4], x1 = 0.5243	–	-1.03e-07
[4], x1 = 0.6231	–	-1.02e-07
[4], x1 = 0.7619	–	-8.9e-08
[4], x1 = 0.849	–	-6.9e-08
[4], x1 = 0.9052	–	-5.1e-08

Cc1ccc(C)cc1 [1,4-dimethylbenzene]
Settings	mass density [kg/m3]	refractive index
[1]	847.91	–
[2]	–	1.4879

c1ccccc1 [benzene]
Settings	mass density [kg/m3]	refractive index
[1]	862.93	–
[2]	–	1.4921

Cc1cccc(C)c1 [1,3-dimethylbenzene]
Settings	mass density [kg/m3]	refractive index
[1]	851.53	–
[2]	–	1.4946

Reference: the NIST ThermoML archive (doi:10.1016/j.fluid.2005.06.011)
